Species on record: Rattus norvegicus
Assay: Open TG-GATES - Regimen: Single
Type: toxicity, organism-based, Sprague-Dawley
Set-up: regimen Single, gender Male, age 6 weeks
Settings: in vivo, po, route gavage; for TP / gamma-GTP / ALP / AST / CRE / DBIL / IP / K / LDH / Na / RALB / TBIL / TC / TG / ALT: tissue Plasma; for Bas / Eos / Fbg / Hb / Lym / MCH / MCHC / MCV / Mono / Neu / PT / RBC / Ret / APTT / WBC / Ht: tissue Blood; for KIDNEY_L / KIDNEY_R / KIDNEY_TOTAL: tissue Kidney
[1] = 30 mg/kg, 3 h, dose level Middle
[2] = 30 mg/kg, 6 h, dose level Middle
[3] = 30 mg/kg, 9 h, dose level Middle
[4] = 30 mg/kg, 24 h, dose level Middle
[5] = 100 mg/kg, 3 h, dose level High
[6] = 100 mg/kg, 6 h, dose level High
[7] = 100 mg/kg, 9 h, dose level High
[8] = 100 mg/kg, 24 h, dose level High

Cc1cnc(NC(=O)C2=C(O)c3ccccc3S(=O)(=O)N2C)s1 [MELOXICAM]
TP (10 mg/kg, 24 h, dose level Low): 5.4 g/dL
gamma-GTP (10 mg/kg, 24 h, dose level Low): 1 IU/L
TERMINAL_BW [1]: 226 g
Bas [1]: 1%
Eos [1]: 0.8%
Fbg [1]: 212 mg/dL
Hb [1]: 13.3 g/dL
Lym [1]: 79.6%
MCH [1]: 21 pg
MCHC [1]: 33.5%
MCV [1]: 62.7 fL
Mono [1]: 2.4%
Neu [1]: 16.4%
PT [1]: 12 s
RBC [1]: 636.4 x10_4/ul
Ret [1]: 7%
KIDNEY_L [1]: 1 g
KIDNEY_R [1]: 1 g
KIDNEY_TOTAL [1]: 2.1 g
ALP [1]: 811 IU/L
AST [1]: 65.6 IU/L
CRE [1]: 0.4 mg/dL
DBIL [1]: 0.07 mg/dL
IP [1]: 8.4 mg/dL
K [1]: 4.1 meq/L
LDH [1]: 177.8 IU/L
Na [1]: 140.6 meq/L
RALB [1]: 3.2 g/dL
TBIL [1]: 0.1 mg/dL
TC [1]: 66 mg/dL
TG [1]: 66 mg/dL
TP [1]: 5.3 g/dL
gamma-GTP [1]: 0.8 IU/L
TERMINAL_BW [2]: 222.4 g
Bas [2]: 0.6%
Eos [2]: 0.8%
Fbg [2]: 221.6 mg/dL
Lym [2]: 73.6%
MCH [2]: 21.8 pg
MCHC [2]: 33.9%
MCV [2]: 64.3 fL
Mono [2]: 3.4%
Neu [2]: 21.4%
RBC [2]: 632.8 x10_4/ul
Ret [2]: 7.2%
KIDNEY_L [2]: 1 g
KIDNEY_R [2]: 0.9 g
KIDNEY_TOTAL [2]: 1.9 g
ALP [2]: 775.2 IU/L
ALT [2]: 36.2 IU/L
AST [2]: 68.6 IU/L
CRE [2]: 0.4 mg/dL
DBIL [2]: 0.062 mg/dL
IP [2]: 9.3 mg/dL
K [2]: 3.8 meq/L
LDH [2]: 163.2 IU/L
Na [2]: 141.2 meq/L
RALB [2]: 3.4 g/dL
TBIL [2]: 0.1 mg/dL
TC [2]: 70.4 mg/dL
TG [2]: 61.6 mg/dL
TP [2]: 5.5 g/dL
gamma-GTP [2]: 1 IU/L
TERMINAL_BW [3]: 222 g
APTT [3]: 17.1 s
Bas [3]: 0.4%
Eos [3]: 0.8%
Fbg [3]: 235 mg/dL
Hb [3]: 13.3 g/dL
Lym [3]: 72%
MCH [3]: 21.8 pg
MCHC [3]: 34.2%
MCV [3]: 63.8 fL
Mono [3]: 3.8%
Neu [3]: 22.2%
PT [3]: 12.5 s
RBC [3]: 612.6 x10_4/ul
Ret [3]: 7%
WBC [3]: 110.9 x10_2/uL
KIDNEY_L [3]: 1 g
KIDNEY_R [3]: 1 g
KIDNEY_TOTAL [3]: 2 g
ALP [3]: 861.8 IU/L
ALT [3]: 34 IU/L
AST [3]: 62.8 IU/L
CRE [3]: 0.4 mg/dL
DBIL [3]: 0.06 mg/dL
IP [3]: 9.6 mg/dL
K [3]: 4.1 meq/L
LDH [3]: 170.2 IU/L
Na [3]: 141.8 meq/L
RALB [3]: 3.2 g/dL
TBIL [3]: 0.1 mg/dL
TC [3]: 64 mg/dL
TG [3]: 44.4 mg/dL
TP [3]: 5.3 g/dL
gamma-GTP [3]: 1 IU/L
TERMINAL_BW [4]: 240.1 g
Bas [4]: 0.6%
Eos [4]: 0.8%
Fbg [4]: 243.4 mg/dL
Lym [4]: 68%
MCH [4]: 21.8 pg
MCHC [4]: 33.7%
MCV [4]: 64.6 fL
Mono [4]: 3.8%
Neu [4]: 26.4%
PT [4]: 11.6 s
RBC [4]: 609 x10_4/ul
Ret [4]: 6.8%
WBC [4]: 132.5 x10_2/uL
KIDNEY_L [4]: 1.1 g
KIDNEY_R [4]: 1.1 g
KIDNEY_TOTAL [4]: 2.1 g
ALT [4]: 38.4 IU/L
AST [4]: 69.6 IU/L
CRE [4]: 0.4 mg/dL
DBIL [4]: 0.098 mg/dL
IP [4]: 7.8 mg/dL
K [4]: 3.9 meq/L
LDH [4]: 207 IU/L
Na [4]: 142.8 meq/L
RALB [4]: 3.3 g/dL
TBIL [4]: 0.2 mg/dL
TC [4]: 72.2 mg/dL
TG [4]: 108 mg/dL
TP [4]: 5.4 g/dL
gamma-GTP [4]: 1 IU/L
TERMINAL_BW [5]: 226.7 g
Bas [5]: 1%
Eos [5]: 1.4%
Fbg [5]: 222.4 mg/dL
Lym [5]: 75.6%
MCH [5]: 21.7 pg
MCHC [5]: 34%
MCV [5]: 63.9 fL
Mono [5]: 3.6%
Neu [5]: 18.6%
PT [5]: 11.8 s
RBC [5]: 624.4 x10_4/ul
Ret [5]: 7.1%
WBC [5]: 99 x10_2/uL
KIDNEY_L [5]: 1 g
KIDNEY_R [5]: 1 g
KIDNEY_TOTAL [5]: 2 g
ALP [5]: 883 IU/L
ALT [5]: 37.2 IU/L
AST [5]: 68.2 IU/L
CRE [5]: 0.4 mg/dL
DBIL [5]: 0.078 mg/dL
IP [5]: 8.9 mg/dL
K [5]: 4 meq/L
LDH [5]: 187.4 IU/L
Na [5]: 140.6 meq/L
RALB [5]: 3.4 g/dL
TBIL [5]: 0.1 mg/dL
TC [5]: 74.2 mg/dL
TG [5]: 74.4 mg/dL
TP [5]: 5.4 g/dL
gamma-GTP [5]: 0.8 IU/L
TERMINAL_BW [6]: 223.6 g
Bas [6]: 0.4%
Eos [6]: 1%
Fbg [6]: 211.6 mg/dL
Hb [6]: 13.3 g/dL
Lym [6]: 73.4%
MCH [6]: 21.1 pg
MCHC [6]: 34%
MCV [6]: 61.9 fL
Mono [6]: 3.2%
Neu [6]: 22.4%
PT [6]: 12.1 s
RBC [6]: 631.4 x10_4/ul
Ret [6]: 6.7%
WBC [6]: 88.1 x10_2/uL
KIDNEY_L [6]: 1 g
KIDNEY_R [6]: 1 g
KIDNEY_TOTAL [6]: 2 g
ALP [6]: 723.4 IU/L
ALT [6]: 37.4 IU/L
AST [6]: 68 IU/L
CRE [6]: 0.3 mg/dL
DBIL [6]: 0.068 mg/dL
IP [6]: 9.5 mg/dL
K [6]: 4.1 meq/L
LDH [6]: 160.4 IU/L
Na [6]: 140.4 meq/L
RALB [6]: 3.3 g/dL
TBIL [6]: 0.1 mg/dL
TC [6]: 67.6 mg/dL
TG [6]: 43 mg/dL
TP [6]: 5.3 g/dL
gamma-GTP [6]: 1 IU/L
TERMINAL_BW [7]: 223.1 g
APTT [7]: 17.8 s
Bas [7]: 0.4%
Eos [7]: 1%
Fbg [7]: 222.6 mg/dL
Hb [7]: 13.3 g/dL
Ht [7]: 38.4%
Lym [7]: 65.6%
MCH [7]: 21.9 pg
MCHC [7]: 34.5%
MCV [7]: 63.6 fL
Mono [7]: 4%
Neu [7]: 28.8%
RBC [7]: 605 x10_4/ul
Ret [7]: 7.1%
KIDNEY_L [7]: 1 g
KIDNEY_R [7]: 1 g
KIDNEY_TOTAL [7]: 2 g
ALP [7]: 759 IU/L
ALT [7]: 27.4 IU/L
AST [7]: 61 IU/L
CRE [7]: 0.4 mg/dL
DBIL [7]: 0.06 mg/dL
IP [7]: 9.6 mg/dL
K [7]: 4.3 meq/L
LDH [7]: 166 IU/L
Na [7]: 141.4 meq/L
RALB [7]: 3.2 g/dL
TBIL [7]: 0.1 mg/dL
TC [7]: 62 mg/dL
TG [7]: 23.2 mg/dL
TP [7]: 5.3 g/dL
gamma-GTP [7]: 1 IU/L
TERMINAL_BW [8]: 227.5 g
Bas [8]: 0.2%
Eos [8]: 0.8%
Fbg [8]: 300.8 mg/dL
Hb [8]: 9.5 g/dL
Ht [8]: 28.5%
Lym [8]: 67.4%
MCH [8]: 20.9 pg
MCHC [8]: 33.2%
MCV [8]: 62.8 fL
Mono [8]: 2.8%
PT [8]: 11.8 s
RBC [8]: 453.8 x10_4/ul
Ret [8]: 8.4%
KIDNEY_L [8]: 1.1 g
KIDNEY_R [8]: 1.1 g
KIDNEY_TOTAL [8]: 2.1 g
ALP [8]: 504.8 IU/L
ALT [8]: 26.2 IU/L
AST [8]: 51.8 IU/L
CRE [8]: 0.4 mg/dL
DBIL [8]: 0.056 mg/dL
IP [8]: 9.8 mg/dL
K [8]: 4.3 meq/L
LDH [8]: 159.4 IU/L
Na [8]: 141.2 meq/L
RALB [8]: 2.2 g/dL
TBIL [8]: 0.1 mg/dL
TC [8]: 58.6 mg/dL
TG [8]: 69.2 mg/dL
TP [8]: 3.9 g/dL
gamma-GTP [8]: 1 IU/L

Reference: ChEMBL document CHEMBL3885861, “Open TG-GATES”
